Experimental data as given in ChEMBL document CHEMBL4680315, “Synthesis and anticancer potential of novel 5,6-oxygenated and/or halogenated steroidal d-homo lactones” (Bioorg Med Chem, 2021).
Activity calls are given as the source filed them. The calls are words filed in the database; no cut-off is given here.

The compounds below were run on MCF7 (assay: Cytotoxicity activity against human MCF7 assessed as inhibition of cell growth measured after 72 hrs by MTT assay). Details: MCF7, 72 h.
Format: functional, cell-based
`CC(=O)O[C@H]1CC[C@]2(C)[C@H]3CC[C@]4(C)COC(=O)C[C@H]4[C@@H]3C[C@H](Br)[C@]2(O)C1` gave an IC50 of 12.9 µM. `CC(=O)O[C@H]1CC[C@]2(C)[C@H]3CC[C@]4(C)COC(=O)C[C@H]4[C@@H]3C[C@@H](O)[C@@]2(Cl)C1` was tested, and the IC50 was > 100 µM. `C[C@]12CC[C@H]3[C@@H](C[C@@H](O)[C@@]4(O)C[C@@H](O)CC[C@]34C)[C@@H]1CC(=O)OC2` gave an IC50 of 8.62 µM. For `C[C@]12CC[C@H]3[C@@H](CC(=O)[C@@]4(O)CC(=O)CC[C@]34C)[C@@H]1CC(=O)OC2`, the IC50 was > 100 µM.

These compounds were tested on MDA-MB-231 (assay: Cytotoxicity against human MDA-MB-231 cells assessed as cell growth inhibition measured after 72 hrs by MTT assay). Details: MDA-MB-231, 72 h.
Format: functional, cell-based
In the case of `CC(=O)O[C@H]1CC[C@]2(C)[C@H]3CC[C@]4(C)COC(=O)C[C@H]4[C@@H]3C[C@H](Br)[C@]2(O)C1`, the IC50 is reported as > 100 µM. With `CC(=O)O[C@H]1CC[C@]2(C)[C@H]3CC[C@]4(C)COC(=O)C[C@H]4[C@@H]3C[C@@H](O)[C@@]2(Cl)C1` the IC50 was > 100 µM. `C[C@]12CC[C@H]3[C@@H](C[C@@H](O)[C@@]4(O)C[C@@H](O)CC[C@]34C)[C@@H]1CC(=O)OC2` showed an IC50 of 13.8 µM. `C[C@]12CC[C@H]3[C@@H](CC(=O)[C@@]4(O)CC(=O)CC[C@]34C)[C@@H]1CC(=O)OC2` showed an IC50 of 4.81 µM.

What follows are compounds tested on PC-3 (assay: Cytotoxicity against human PC-3 cells assessed as cell growth inhibition measured after 72 hrs by MTT assay). Details: PC-3, 72 h.
Format: functional, cell-based
Compound `COc1cccc2c1C(=O)c1c(O)c3c(c(O)c1C2=O)C[C@@](O)(C(=O)CO)C[C@@H]3O[C@H]1C[C@H](N)[C@H](O)[C@H](C)O1` [DOXORUBICIN] has an IC50 of 84.2 µM. In the case of `CC(=O)O[C@H]1CC[C@]2(C)[C@H]3CC[C@]4(C)COC(=O)C[C@H]4[C@@H]3C[C@H](Br)[C@]2(O)C1`, the IC50 is reported as > 100 µM. With `CC(=O)O[C@H]1CC[C@]2(C)[C@H]3CC[C@]4(C)COC(=O)C[C@H]4[C@@H]3C[C@@H](O)[C@@]2(Cl)C1` the IC50 was > 100 µM. In the case of `C[C@]12CC[C@H]3[C@@H](C[C@@H](O)[C@@]4(O)C[C@@H](O)CC[C@]34C)[C@@H]1CC(=O)OC2`, the IC50 is reported as > 100 µM. In the case of `C[C@]12CC[C@H]3[C@@H](CC(=O)[C@@]4(O)CC(=O)CC[C@]34C)[C@@H]1CC(=O)OC2`, the IC50 is reported as > 100 µM.

Each compound was assayed on HeLa (assay: Cytotoxicity against human Hela cells assessed as cell growth inhibition measured after 72 hrs by MTT assay). Details: not given.
Format: functional, cell-based
For `CC(=O)O[C@H]1CC[C@]2(C)[C@H]3CC[C@]4(C)COC(=O)C[C@H]4[C@@H]3C[C@H](Br)[C@]2(O)C1`, the IC50 was > 100 µM. In the case of `CC(=O)O[C@H]1CC[C@]2(C)[C@H]3CC[C@]4(C)COC(=O)C[C@H]4[C@@H]3C[C@@H](O)[C@@]2(Cl)C1`, the IC50 is reported as 36.9 µM. In the case of `C[C@]12CC[C@H]3[C@@H](C[C@@H](O)[C@@]4(O)C[C@@H](O)CC[C@]34C)[C@@H]1CC(=O)OC2`, the IC50 is reported as 93.6 µM. In the case of `C[C@]12CC[C@H]3[C@@H](CC(=O)[C@@]4(O)CC(=O)CC[C@]34C)[C@@H]1CC(=O)OC2`, the IC50 is reported as 40.1 µM.

What follows are compounds tested on HT-29 (assay: Cytotoxicity against human HT-29 cells assessed as cell growth inhibition measured after 72 hrs by MTT assay). Details: HT-29, 72 h.
Format: functional, cell-based
For `CC(=O)O[C@H]1CC[C@]2(C)[C@H]3CC[C@]4(C)COC(=O)C[C@H]4[C@@H]3C[C@H](Br)[C@]2(O)C1`, the IC50 was > 100 µM. `CC(=O)O[C@H]1CC[C@]2(C)[C@H]3CC[C@]4(C)COC(=O)C[C@H]4[C@@H]3C[C@@H](O)[C@@]2(Cl)C1` was tested, and the IC50 was 72.3 µM. In the case of `C[C@]12CC[C@H]3[C@@H](C[C@@H](O)[C@@]4(O)C[C@@H](O)CC[C@]34C)[C@@H]1CC(=O)OC2`, the IC50 is reported as 9.34 µM. In the case of `C[C@]12CC[C@H]3[C@@H](CC(=O)[C@@]4(O)CC(=O)CC[C@]34C)[C@@H]1CC(=O)OC2`, the IC50 is reported as 42.2 µM.

Each compound was assayed on A549 (assay: Cytotoxicity against human A549 cells assessed as cell growth inhibition measured after 72 hrs by MTT assay). Details: A549, 72 h.
Format: functional, cell-based
For `COc1cccc2c1C(=O)c1c(O)c3c(c(O)c1C2=O)C[C@@](O)(C(=O)CO)C[C@@H]3O[C@H]1C[C@H](N)[C@H](O)[C@H](C)O1` [DOXORUBICIN], the IC50 was > 100 µM. In the case of `CC(=O)O[C@H]1CC[C@]2(C)[C@H]3CC[C@]4(C)COC(=O)C[C@H]4[C@@H]3C[C@H](Br)[C@]2(O)C1`, the IC50 is reported as > 100 µM. For `CC(=O)O[C@H]1CC[C@]2(C)[C@H]3CC[C@]4(C)COC(=O)C[C@H]4[C@@H]3C[C@@H](O)[C@@]2(Cl)C1`, the IC50 was > 100 µM. `C[C@]12CC[C@H]3[C@@H](C[C@@H](O)[C@@]4(O)C[C@@H](O)CC[C@]34C)[C@@H]1CC(=O)OC2` gave an IC50 of 0.99 µM. In the case of `C[C@]12CC[C@H]3[C@@H](CC(=O)[C@@]4(O)CC(=O)CC[C@]34C)[C@@H]1CC(=O)OC2`, the IC50 is reported as > 100 µM.

Each compound was assayed on MRC5 (assay: Cytotoxicity against human MRC5 cells assessed as cell growth inhibition measured after 72 hrs by MTT assay). Details: MRC5, 72 h.
Format: cell-based
Compound `COc1cccc2c1C(=O)c1c(O)c3c(c(O)c1C2=O)C[C@@](O)(C(=O)CO)C[C@@H]3O[C@H]1C[C@H](N)[C@H](O)[C@H](C)O1` [DOXORUBICIN] has an IC50 of 0.24 µM. With `CC(=O)O[C@H]1CC[C@]2(C)[C@H]3CC[C@]4(C)COC(=O)C[C@H]4[C@@H]3C[C@H](Br)[C@]2(O)C1` the IC50 was > 100 µM. `CC(=O)O[C@H]1CC[C@]2(C)[C@H]3CC[C@]4(C)COC(=O)C[C@H]4[C@@H]3C[C@@H](O)[C@@]2(Cl)C1` was tested, and the IC50 was > 100 µM. For `C[C@]12CC[C@H]3[C@@H](C[C@@H](O)[C@@]4(O)C[C@@H](O)CC[C@]34C)[C@@H]1CC(=O)OC2`, the IC50 was > 100 µM. With `C[C@]12CC[C@H]3[C@@H](CC(=O)[C@@]4(O)CC(=O)CC[C@]34C)[C@@H]1CC(=O)OC2` the IC50 was > 100 µM.

Each compound was assayed on MDA-MB-231 (assay: Induction of apoptosis in human MDA-MB-231 cells assessed as late apoptotic cells by measuring red colour signal measured after 72 hrs by fluorescent double-staining method). Details: not given.
Format: functional, cell-based
`C[C@]12CC[C@H]3[C@@H](C[C@@H](O)[C@@]4(O)C[C@@H](O)CC[C@]34C)[C@@H]1CC(=O)OC2` was tested, and the Activity was “Active”. With `C[C@]12CC[C@H]3[C@@H](CC(=O)[C@@]4(O)CC(=O)CC[C@]34C)[C@@H]1CC(=O)OC2` the Activity was “Active”.

The compounds below were run on HT-29 (assay: Induction of apoptosis in human HT-29 cells assessed as late apoptotic cells by measuring red colour signal measured after 72 hrs by fluorescent double-staining method). Details: not given.
Format: functional, cell-based
In the case of `C[C@]12CC[C@H]3[C@@H](C[C@@H](O)[C@@]4(O)C[C@@H](O)CC[C@]34C)[C@@H]1CC(=O)OC2`, the Activity is reported as “Active”.

Each compound was assayed on A549 (assay: Induction of apoptosis in human A549 cells assessed as late apoptotic cells by measuring red colour signal measured after 72 hrs by fluorescent double-staining method). Details: not given.
Format: functional, cell-based
For `C[C@]12CC[C@H]3[C@@H](C[C@@H](O)[C@@]4(O)C[C@@H](O)CC[C@]34C)[C@@H]1CC(=O)OC2`, the Activity was “Active”.

What follows are compounds tested against T1, Estrogen receptor (Homo sapiens) (UniProt P03372) (assay: Binding affinity to EYFP-tagged human ERalpha-LBD expressed in Saccharomyces cerevisiae FY250 strain assessed as fluorescence intensity at 10 uM incubated for 14 to 16 hrs by fluorescence spectroscopy based fluorescence microscopy relative to control). Details: time 14-16 hrs.
T1 sequence (whole entry): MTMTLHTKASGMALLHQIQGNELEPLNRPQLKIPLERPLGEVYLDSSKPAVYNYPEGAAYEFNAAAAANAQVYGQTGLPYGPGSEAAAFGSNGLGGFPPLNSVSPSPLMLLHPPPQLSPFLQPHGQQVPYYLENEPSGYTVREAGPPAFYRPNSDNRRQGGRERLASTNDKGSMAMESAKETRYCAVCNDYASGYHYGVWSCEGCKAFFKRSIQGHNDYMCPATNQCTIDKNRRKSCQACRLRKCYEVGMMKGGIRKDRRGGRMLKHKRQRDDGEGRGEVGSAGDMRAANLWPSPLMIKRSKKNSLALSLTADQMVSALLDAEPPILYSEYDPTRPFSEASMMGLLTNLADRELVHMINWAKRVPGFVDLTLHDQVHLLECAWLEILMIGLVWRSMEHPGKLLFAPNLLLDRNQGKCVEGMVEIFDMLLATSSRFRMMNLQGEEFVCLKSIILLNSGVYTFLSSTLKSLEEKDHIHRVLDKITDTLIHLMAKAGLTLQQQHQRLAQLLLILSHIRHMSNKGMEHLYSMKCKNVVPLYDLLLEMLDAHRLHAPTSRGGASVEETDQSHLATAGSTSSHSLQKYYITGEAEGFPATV
In the case of `C[C@]12CC[C@H]3[C@@H](CC(=O)[C@@]4(O)CC(=O)CC[C@]34C)[C@@H]1CC(=O)OC2`, the Activity is reported as “Active”.
